Assay [1] addresses T1, 20S Human Erythrocyte Proteasome (HEP) (Homo sapiens, UniProt P28074).
T1 construct: 20S Human Erythrocyte Proteasome (HEP), purchased from Immatics Biotechnologies Inc; purchased Immatics Biotechnologies Inc., Tubingen, Germany; host or cells: human erythrocytes (natural source)
Nature of the assay: Chymotrypsin-like activity of 20S Human Erythrocyte Proteasome (HEP), IC50 determination. The format is biochemical. Conditions: Suc-LLVY-AMC substrate, 15 minutes preincubation at 37° C. On the procedure:
Proteasome chymotrypsin-like activity of compounds of the invention was assayed according to the following procedure.
In 96-well microtiter plates, 20S Human Erythrocyte Proteasome (HEP), purchased from Immatics Biotechnologies Inc., Tubingen, Germany was plated at 0.2 μg/mL (about 0.6 nM catalytic sites) in 0.04% SDS 20 mM Tris buffer. A fluorimetric substrate Suc-LLVY-AMC (succinyl-Leu-Leu-Val-Tyr-7-amido-4-methylcoumarin), purchased from Sigma Inc., St. Louis, Mo., USA was added to a final concentration of 100 μM from a stock solution of 10 mM in dimethylsulfoxide. Reaction volumes were 100 μl per well. After incubation for various periods of time at 37° C., the concentration of free AMC (aminomethylcoumarin) was determined on a Perkin Elmer HTS 7000 Plus microplate reader, excitation 370 nm and emission 465 nm. Proteasome activity was determined under conditions in which substrate hydrolysis increased linearly with time and the change in fluorescence signal was proportional to the concentration of free AMC.
IC50 values are typically defined as the concentration of a compound necessary to produce 50% inhibition of the enzyme's activity. IC50 values are useful indicators of the activity of a compound for its designated use. […] In some embodiments, the inhibitors show some specificity for HEP and the ratio of the IC50 for inhibition of bovine α-chymotrypsin versus the IC50 for inhibition of HEP, i.e, IC50 (α-Chymotripsin)/IC50 (HEP), is greater then about 100.
Inhibition of the chymotrypsin-like activity of HEP and of bovine α-chymotrypsin was determined by incubating the enzyme with various concentrations of putative inhibitors for 15 minutes at 37° C. (or room temperature for α-chymotrypsin) prior to the addition of substrate. Each experimental condition was evaluated in triplicate, and replicate experiments were performed for the inhibitors described herein.

Assay [2] deals with proteasome in Molt-4 cells. As to the kind of experiment: Cellular assay for chymotrypsin-like activity of proteasome in Molt-4 cell line, EC50 determination. As to conditions: MeOSuc-FLF-AFC substrate, 15 minutes preincubation at 37° C., read-out: MOLT4 (EC50). The format is cell-based, human. On the procedure:
The chymotrypsin-like activity of proteasome in Molt-4 cells (human leukemia) was assayed according to the following procedure. A brief description of the method was published previously (Harding et al., J. Immunol., 1995, 155, 1767).
Molt-4 cells were washed and resuspended in HEPES-buffered Saline (5.4 mM KCl, 120 mM NaCl, 25 mM Glucose, 1.5 mM MgSO4, 1 mM Na pyruvate, 20 mM Hepes) and plated in 96-well microtiter white plates to a final concentration of 6×10^6 cells/mL. Then various 5× proteasome inhibitor concentrations (or diluted DMSO for controls), prepared from 250×DMSO solutions by diluting 50-fold using HEPES-buffered saline, were added to the plate to a final 1× concentration. After 15 minutes incubation at 37° C., a fluorimetric cell permeable substrate (MeOSuc-FLF-AFC) (methoxysuccinyl-Phe-Leu-Phe-7-amido-4-trifluoromethylcoumarin) purchased from Enzyme Systems Products, catalogue number AFC-88, was added to each well at a final concentration of 25 μM from a stock solution of 20 mM in DMSO. Reaction volumes were 100 μl per well.
The concentration of free AFC was monitored every 1.5 min for 30 min ([…]) on a Polastar Optima, BMG Labtechnologies microplate reader, using an excitation wavelength of 390 nm and emission wavelength of 520 nm. Proteasome activity was determined under conditions in which substrate hydrolysis increased linearly with time and the change in fluorescent signal was proportional to the concentration of free AFC.
EC50 values are typically defined as the concentration of a compound required to produce an inhibition of the enzyme's activity halfway between the minimum and the maximum response (0% and 85–90% respectively for this assay). EC50 values are useful indicators of the activity of a compound for its designated use.
Inhibition of chymotrypsin-like activity of proteasome in Molt-4 cells was determined by incubating cells with various concentrations of putative inhibitors for 15 minutes at 37° C. prior to the addition of substrate. Each experimental condition was evaluated in triplicate, and replicate experiments were performed for the inhibitors described herein.

SMILES strings stand for the structures.

Broadly, the IC50 is the concentration that gives 50% inhibition. A high value points to a need for much substance. As usually defined, the EC50 is the concentration at which the effect is half-maximal. `COC(=O)CCCCCCC(=O)N[C@@H](CCCNC(=N)N[N+](=O)[O-])C(=O)N[C@@H](CC(C)C)B1O[C@@H]2C[C@@H]3C[C@@H](C3(C)C)[C@]2(C)O1` [Example 12] had a half-inhibitory concentration (IC50) in assay [1] of less than 0.01 µM. For the same molecule, the EC50 in assay [2] was less than 2 µM.
Take `CC(C)C[C@H](NC(=O)[C@H](CCCNC(=N)N[N+](=O)[O-])NC(=O)CCCCCCCCCCCN1C(=O)c2ccccc2C1=O)B1O[C@@H]2C[C@@H]3C[C@@H](C3(C)C)[C@]2(C)O1` [Example 16]: in assay [1], the concentration for half-maximal inhibition (IC50) was less than 0.01 µM. Moreover, the 50% effective concentration (EC50) in assay [2] is less than 0.2 µM.
In turn, `CC(C)C[C@H](NC(=O)[C@H](CCCNC(=N)N[N+](=O)[O-])NC(=O)CCCCCCCCCN1C(=O)c2ccccc2C1=O)B(O)O` [Example 23] returned a half-inhibitory concentration (IC50) in assay [1] of less than 0.01 µM. Besides, the concentration giving a half-maximal response (EC50) in assay [2] is less than 0.2 µM.
For `CC(C)C[C@H](NC(=O)[C@H](CCCNC(=N)N[N+](=O)[O-])NC(=O)CCCCCCCCCN1C(=O)c2ccccc2C1=O)B1O[C@@H]2C[C@@H]3C[C@@H](C3(C)C)[C@]2(C)O1` [Example 10, 10-(1,3-Dioxo-1,3-dihydro-isoindol-2-yl)-decanamide, N-[(1S)-1-[[[(1R)-1-[(3aS,4S,6S,7aR)-hexahydro-3a,5,5-trimethyl-4,6-methano-1,3,2-benzodioxaborol-2-yl]-3-methylbutyl]amino]carbonyl]-4-[[imino(nitroamino)methyl]amino]butyl]-;], in that order: less than 0.01 µM and less than 0.2 µM.
For `CC(C)C[C@H](NC(=O)[C@H](CCCNC(=N)N[N+](=O)[O-])NC(=O)CCCCCNS(=O)(=O)c1ccccc1)B1O[C@@H]2C[C@@H]3C[C@@H](C3(C)C)[C@]2(C)O1` [Example 18, 6-Benzenesulfonylaminohexanamide, N-[(1S)-1-[[[(1R)-1-[(3aS,4S,6S,7aR)-hexahydro-3a,5,5-trimethyl-4,6-methano-1,3,2-benzodioxaborol-2-yl]-3-methylbutyl]amino]carbonyl]-4-[[imino(nitroamino)methyl]amino]butyl]], in that order: less than 0.01 µM and less than 2 µM.
For `CCS(=O)(=O)NCCCCCC(=O)N[C@@H](CCCNC(=N)N[N+](=O)[O-])C(=O)N[C@@H](CC(C)C)B1O[C@@H]2C[C@@H]3C[C@@H](C3(C)C)[C@]2(C)O1` [Example 17, 6-(Ethanesulfonylamino)hexanamide, N-[(1S)-1-[[[(1R)-1-[(3aS,4S,6S,7aR)-hexahydro-3a,5,5-trimethyl-4,6-methano-1,3,2-benzodioxaborol-2-yl]-3-methylbutyl]amino]carbonyl]-4-[[imino(nitroamino)methyl]amino]butyl]], in that order: less than 0.1 µM and greater than 10 µM.
As to `CC(=O)NCCCCCC(=O)N[C@@H](CCCNC(=N)N[N+](=O)[O-])C(=O)N[C@@H](CC(C)C)B1O[C@@H]2C[C@@H]3C[C@@H](C3(C)C)[C@]2(C)O1` [Example 15, 6-(Acetylamino)hexanamide, N-[(1S)-1-[[[(1R)-1-[(3aS,4S,6S,7aR)-hexahydro-3a,5,5-trimethyl-4,6-methano-1,3,2-benzodioxaborol-2-yl]-3-methylbutyl]amino]carbonyl]-4-[[imino(nitroamino)methyl]amino]butyl]], the concentration for half-maximal inhibition (IC50) in assay [1] is less than 0.1 µM.
Molecule `CC(C)C[C@H](NC(=O)[C@H](CCCNC(=N)N[N+](=O)[O-])NC(=O)CCCCCCCCC#N)B1O[C@@H]2C[C@@H]3C[C@@H](C3(C)C)[C@]2(C)O1` [Example 14, 9–Cyanononamide, N-[(1S)-1-[[[(1R)-1-[(3aS,4S,6S,7aR)-hexahydro-3a,5,5-trimethyl-4,6-methano-1,3,2-benzodioxaborol-2-yl]-3-methylbutyl]amino]carbonyl]-4-[[imino(nitroamino)methyl]amino]butyl]] registered an IC50 in assay [1] of less than 0.01 µM. Besides, the EC50 in assay [2] is less than 0.2 µM.
For `CC(C)C[C@H](NC(=O)[C@H](CCCNC(=N)N[N+](=O)[O-])NC(=O)CCCCCCCCCCC#N)B1O[C@@H]2C[C@@H]3C[C@@H](C3(C)C)[C@]2(C)O1` [Example 13, 11-Cyanoundecanamide, N-[(1S)-1-[[[(1R)-1-[(3aS,4S,6S,7aR)-hexahydro-3a,5,5-trimethyl-4,6-methano-1,3,2-benzodioxaborol-2-yl]-3-methylbutyl]amino]carbonyl]-4-[[imino(nitroamino)methyl]amino]butyl]-.], in that order: less than 0.01 µM and less than 0.2 µM.
The molecule `CCS(=O)(=O)NCCCCCCCC(=O)N[C@@H](CCCNC(=N)N[N+](=O)[O-])C(=O)N[C@@H](CC(C)C)B1O[C@@H]2C[C@@H]3C[C@@H](C3(C)C)[C@]2(C)O1` [Example 19] displayed a 50% inhibitory concentration (IC50) in assay [1] of less than 0.01 µM. Further, the EC50 in assay [2] was less than 0.2 µM.
For `CC(=O)NCCCCCC(=O)N[C@@H](CCCNC(=N)N[N+](=O)[O-])C(=O)N[C@@H](CC(C)C)B(O)O` [Example 24, Boronic acid, [(1R)-1-[[(2S)-5-[[imino(nitroamino)methyl]amino]-2-[[6-(acetylamino)hexanoyl]amino]-1-oxopentyl]amino]-3-methylbutyl]], in that order: less than 0.01 µM and greater than 10 µM.
Molecule `CC(C)C[C@H](NC(=O)[C@H](CCCNC(=N)N[N+](=O)[O-])NC(=O)CCCCCCCCCCCNC(=O)OC(C)(C)C)B1O[C@@H]2C[C@@H]3C[C@@H](C3(C)C)[C@]2(C)O1` [Example 11, 12-[(1,1-dimethylethoxy)carbonylamino]dodecanamide, N-[(1S)-1-[[[(1R)-1-[(3aS,4S,6S,7aR)-hexahydro-3a,5,5-trimethyl-4,6-methano-1,3,2-benzodioxaborol-2-yl]-3-methylbutyl]amino]earbonyl]-4-[[imino(nitroamino)methyl]amino]butyl]-] displayed a 50% inhibitory concentration (IC50) in assay [1] of less than 0.01 µM. In addition, the EC50 in assay [2] is less than 0.2 µM.
`CC(C)C[C@H](NC(=O)[C@H](CCCNC(=N)N[N+](=O)[O-])NC(=O)CCCCCCCCCCC#N)B(O)O` [Example 20, Boronic acid, [(1R)-1-[[(2S)-5-[[imino(nitroamino)methyl]amino]-2-[(11-Cianoundecanoyl)amino]-1-oxopentyl]amino]-3-methylbutyl]] yielded an IC50 in assay [1] of less than 0.01 µM. Besides, the concentration for a half-maximal effect (EC50) in assay [2] was less than 10 µM.
`COC(=O)CCCCCCC(=O)N[C@@H](CCCNC(=N)N[N+](=O)[O-])C(=O)N[C@@H](CC(C)C)B(O)O` [Example 22, Boronic acid, [(1R)-1-[[(2S)-5-[[imino(nitroamino)methyl]amino]-2-[[7-(methoxycarbonyl)heptanoyl]amino]-1-oxopentyl]amino]-3-methylbutyl]] yielded an IC50 in assay [1] of less than 0.01 µM. For the same molecule, in assay [2], the EC50 was greater than 10 µM.
Take `CC(C)C[C@H](NC(=O)[C@H](CCCNC(=N)N[N+](=O)[O-])NC(=O)CCCCCCCCC#N)B(O)O` [Example 21, Boronic acid, [(1R)-1-[[(2S)-5-[[imino(nitroamino)methyl]amino]-2-[(9-Cyanononanoyl)amino]-1-oxopentyl]amino]-3-methylbutyl]]: in assay [1], the IC50 was less than 0.01 µM. In assay [2], the EC50 is greater than 10 µM.

These data come from US7223745B2, “Proteasome inhibitors and methods of using the same” (Cephalon, Inc., priority 2003, dated 2007).
